Experimental data: article PMC12057359, “Inhibitory effect of copper chelators on the budding in Candida albicans” (Antimicrobial Agents and Chemotherapy, 2025)

Tests used:
C. albicans JCM1542 [1] = test: iHOPE antimicrobial microdilution assay (turbidity OD600); assay type: cell-based, Candida albicans
C. glabrata JCM3761 [2] = test: as above; assay type: cell-based, Candida glabrata; conditions: Nakaseomyces glabratus, JCM3761, 24 h, read-out: IC50 against C. glabrata JCM3761
C. tropicalis JCM1541 = test: as above; assay type: cell-based; conditions: Candida tropicalis, JCM1541, 24 h, read-out: IC50 against C. tropicalis JCM1541
C. auris Ci6684 = test: as above; assay type: cell-based, Candida auris; conditions: Candidozyma auris, CI6684, 24 h, read-out: IC50 against C. auris Ci6684
C. auris VPCI673 = test: as above; assay type: cell-based, Candida auris; conditions: Candidozyma auris, VPCI673, 24 h, read-out: IC50 against C. auris VPCI673
A. fumigatus Af293 = test: iHOPE antimicrobial microdilution assay; assay type: cell-based, Aspergillus fumigatus; conditions: Aspergillus fumigatus, AF293, read-out: IC50 against A. fumigatus Af293
P. oryzae Kita-1 = test: microbe, parasite or virus in culture; assay type: cell-based, Pyricularia oryzae; conditions: Pyricularia oryzae, KITA1, read-out: IC50 against P. oryzae Kita-1
S. aureus 209P = test: iHOPE antimicrobial microdilution assay; assay type: cell-based, Staphylococcus aureus; conditions: Staphylococcus aureus, 209P, read-out: IC50 against S. aureus 209P
E. coli HO-141 = test: iHOPE antimicrobial microdilution assay; assay type: cell-based, Escherichia coli; conditions: Escherichia coli, HO141, read-out: IC50 against E. coli HO-141
[3] = iHOPE in vitro cytotoxicity assessment (Cell Count Reagent SF); assay type: cell-based, human; conditions: human; SD in parentheses, n = 3; read-out: IC50 against HL-60 RCB0041 (cytotoxicity)
Experimental: (§5) The method for in vitro cytotoxicity assessment using Cell Count Reagent SF (Nacalai Tesque) has been described previously ([15]). […] Test compounds were added to the culture medium, and then the plates were incubated at 28°C for 24 h.

HL-60 RCB0041 = test: as above; assay type: cell-based, human; conditions: up to / at 30 µM
Experimental: as §5

C. albicans JCM1542 [4] = assay type: cell-based, Candida albicans
C. glabrata JCM3761 [5] = test: Intracellular ATP measurement (BacTiter-Glo); assay type: cell-based, Candida glabrata; conditions: C. glabrata JCM3761, 6 h, dose range 0.010–0.3 µM
Experimental: (§1) Intracellular ATP measurement
(§2) Intracellular ATP levels were examined using the protocol outlined in a previous study (27). C. glabrata JCM3761 was precultured overnight in YPD medium [1% yeast extract (Thermo Fisher Scientific), 2% peptone (NIHON PHARMACEUTICAL, Osaka, Japan), and 2% D-glucose]. A 200-µL inoculum suspension containing 0.1% of a 0.5 McFarland standard suspension was prepared and seeded into a 96-well plate. […] The luminescence was recorded using a Varioskan LUX Multimode Microplate Reader.
(§3) Reactive oxygen species (ROS) measurement
(§4) ROS levels were examined using the method described in a previous paper (27). The overnight preculture of C. albicans JCM1542 was washed and resuspended in 5 mL of PBS buffer. 2’,7’- dichlorodihydrofluorescein diacetate (DCFH-DA; Cayman Chemical, MI, US) was added at a concentration of 50 µM. After incubation at 28 °C for 30 min, the fungi were washed three times with PBS buffer to remove the residual extracellular dye and seeded at a density of 1×10^6 cells/well in 50 µL of PBS, followed by the sample addition. After 60 min of incubation, the fluorescence intensity (excitation wavelength/emission wavelength = 485/535 nm) was measured using Varioskan LUX Multimode Microplate Reader.

C. albicans JCM1542 [6] = test: Reactive oxygen species (ROS) measurement (DCFH-DA); assay type: cell-based, Candida albicans; conditions: 60 min, dose range 0.010–0.3 µM
Experimental: as §1, §2, §3, §4

C. albicans IFO1601 = system: C. albicans IFO1601; parameters: method as in earlier work; conditions: cited from earlier work

In the case of `[C-]#[N+][C@H](C)CC(=O)NC[C@@H]1CC[C@H](NC(=O)C[C@@H](C)[N+]#[C-])C(O)O1` (stereo partly shown) [SF2768], the “effect of excessive amounts of other metal ions (iron, zinc, manganese, magnesium) on the activity” value (C. albicans JCM1542 [1]; 0.03 µM SF2768, metal chlorides, 24 h) is reported as “did not affect the activity”, the IC50 (C. albicans JCM1542 [1]; Candida albicans, JCM1542, 24 h, read-out: IC50 against C. albicans JCM1542) is reported as 10 nM and the selectivity index (C. albicans JCM1542 [1]; HL-60 cytotoxicity versus C. albicans IC50) is reported as > 3,000. It also gave an IC50 (C. glabrata JCM3761 [2]) of 5.4 nM, an IC50 (C. tropicalis JCM1541) of 13 nM and an IC50 (C. auris Ci6684) of 20 nM. It also gave an IC50 (C. auris VPCI673) of 49 nM, an IC50 (A. fumigatus Af293) of 120 nM and an IC50 (P. oryzae Kita-1) greater than 30000 nM. It also gave an IC50 (S. aureus 209P) of 500 nM, an IC50 (E. coli HO-141) greater than 30000 nM and an IC50 [3] greater than 30000 nM. The “cytotoxicity to HL-60 cells (in words)” value (HL-60 RCB0041) was “without any cytotoxicity”, the “effect on farnesol-induced yeast growth of C. albicans” value (C. albicans JCM1542 [4]) was “clearly inhibited this effect” and the “morphological change induced in C. albicans” value (C. albicans JCM1542 [4]) was “few branching or lateral yeasts were observed, and only minimal hyphal growth was observed”. The “concentration at which the hyphal form of C. albicans was predominant” value (C. albicans JCM1542 [4]; C. albicans JCM1542) was no less than 0.030 µM, the “intracellular level of ATP” value (C. glabrata JCM3761 [5]) was “did not alter the amount” and the “intracellular level of reactive oxygen species (ROS)” value (C. albicans JCM1542 [6]) was “did not alter the amount”. For the same molecule, the “zone of inhibition against C. albicans IFO1601” value (C. albicans IFO1601) was “faint zone of inhibition”.
